Earlier results as cited in publication PMC11975010 (Drug Design, Development and Therapy, 2025).
Where two headings read alike, the source gives them in different places.

Experiments:
[1] = at 25 °C
[2] = poor solubility in water and high permeability
[3] = administered as HP-β-CD complex formulation
[4] = not given; remark: listed apart in the source

CC(O)COC[C@H]1O[C@@H]2O[C@H]3[C@H](O)[C@@H](O)[C@@H](O[C@H]4[C@H](O)[C@@H](O)[C@@H](O[C@H]5[C@H](O)[C@@H](O)[C@@H](O[C@H]6[C@H](O)[C@@H](O)[C@@H](O[C@H]7[C@H](O)[C@@H](O)[C@@H](O[C@H]8[C@H](O)[C@@H](O)[C@@H](O[C@H]1[C@H](O)[C@H]2O)O[C@@H]8COCC(C)O)O[C@@H]7COCC(C)O)O[C@@H]6COCC(C)O)O[C@@H]5COCC(C)O)O[C@@H]4COCC(C)O)O[C@@H]3COCC(C)O (stereo partly drawn) [HP-β-CD, hydroxypropyl-beta-cyclodextrin]
Aqueous solubility [1]: approximately 600 mg/mL

COc1ccc(CN=c2[nH]c(N3CCC[C@H]3CO)ncc2C(=O)NCc2ncccn2)cc1Cl [AVA, Avanafil]
Action duration: up to 12 hours | Biopharmaceutical Classification System class [2]: class II

C[C@@H]1C[C@H]2[C@@H]3CCC4=CC(=O)C=C[C@]4(C)[C@@]3(F)[C@@H](O)C[C@]2(C)[C@@]1(O)C(=O)CO [dexamethasone]
Clearance [3]: lower clearance

CC[C@@]1(O)C(=O)OCc2c1cc1n(c2=O)Cc2cc3ccccc3nc2-1 [camptothecin]
Lactone ring hydrolysis ([4]; before stabilization in HP-β-CD): 40% | Lactone ring hydrolysis ([4]; stabilized in HP-β-CD cavities): 6.7%
